From the supplement of paper PMC10307832

What was measured:
Assay in all cases: relative viability (nuclei count vs DMSO), 5 days (fraction); higher = more cells survive
Alpelisib + Foretinib = compound: Cc1nc(NC(=O)N2CCC[C@H]2C(N)=O)sc1-c1ccnc(C(C)(C)C(F)(F)F)c1 [Alpelisib] + COc1cc2c(Oc3ccc(NC(=O)C4(C(=O)Nc5ccc(F)cc5)CC4)cc3F)ccnc2cc1OCCCN1CCOCC1 [Foretinib] (partner 0.25 µM)
Summary of the method: (§1)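 Lung cancer cell lines in 1536-well plates were dosed by pin tool the day after seeding, either with one drug alone or with a fixed anchor-drug dose plus five library-drug doses (not always all listed) in √10 steps. After 5 days, cells were fixed and their nuclei stained in one step (final 0.05% Triton X-100, 1% formaldehyde, 1 ug/ml Hoechst), then counted on 4× images. Relative viability is the nuclei count in treated wells divided by that in vehicle wells. Values are medians of duplicate plates.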

Vemurafenib + Pemetrexed = compound: CCCS(=O)(=O)Nc1ccc(F)c(C(=O)c2c[nH]c3ncc(-c4ccc(Cl)cc4)cc23)c1F [Vemurafenib] + Nc1nc2[nH]cc(CCc3ccc(C(=O)N[C@@H](CCC(=O)O)C(=O)O)cc3)c2c(=O)[nH]1 [Pemetrexed] (partner 0.2 µM)
Summary of the method: as §1

Vemurafenib + Decitabine = compound: CCCS(=O)(=O)Nc1ccc(F)c(C(=O)c2c[nH]c3ncc(-c4ccc(Cl)cc4)cc23)c1F [Vemurafenib] + Nc1ncn([C@H]2C[C@H](O)[C@@H](CO)O2)c(=O)n1 [Decitabine] (partner 2 µM)
Summary of the method: as §1

Vemurafenib + Foretinib = compound: CCCS(=O)(=O)Nc1ccc(F)c(C(=O)c2c[nH]c3ncc(-c4ccc(Cl)cc4)cc23)c1F [Vemurafenib] + COc1cc2c(Oc3ccc(NC(=O)C4(C(=O)Nc5ccc(F)cc5)CC4)cc3F)ccnc2cc1OCCCN1CCOCC1 [Foretinib] (partner 0.25 µM)
Summary of the method: as §1

| Cell Line | relative viability (Alpelisib + Foretinib; first compound 0.04 µM) | relative viability (Alpelisib + Foretinib; first compound 0.1265 µM) | relative viability (Alpelisib + Foretinib; first compound 0.4 µM) | relative viability (Alpelisib + Foretinib; first compound 1.265 µM) | relative viability (Alpelisib + Foretinib; first compound 4 µM) | relative viability (Vemurafenib + Pemetrexed; first compound 0.03162 µM) | relative viability (Vemurafenib + Pemetrexed; first compound 0.1 µM) | relative viability (Vemurafenib + Pemetrexed; first compound 0.3162 µM) | relative viability (Vemurafenib + Pemetrexed; first compound 1 µM) | relative viability (Vemurafenib + Decitabine; first compound 0.03162 µM) | relative viability (Vemurafenib + Decitabine; first compound 0.1 µM) | relative viability (Vemurafenib + Decitabine; first compound 0.3162 µM) | relative viability (Vemurafenib + Decitabine; first compound 1 µM) | relative viability (Vemurafenib + Foretinib; first compound 0.03162 µM) | relative viability (Vemurafenib + Foretinib; first compound 0.1 µM) | relative viability (Vemurafenib + Foretinib; first compound 0.3162 µM) | relative viability (Vemurafenib + Foretinib; first compound 1 µM) |
| --- | --- | --- | --- | --- | --- | --- | --- | --- | --- | --- | --- | --- | --- | --- | --- | --- | --- |
| NCI-H2023 | 0.82 | 0.844 | 0.667 | 0.605 | 0.527 | 0.229 | 0.2 | 0.207 | 0.278 | 0.228 | 0.224 | 0.257 | 0.246 | 0.881 | 0.811 | 1.09 | 0.742 |
| NCI-H2347 | 0.777 | 0.98 | 0.88 | 0.647 | 0.701 | 0.413 | 0.441 | 0.357 | 0.412 | 0.588 | 0.538 | 0.562 | 0.613 | 0.662 | 0.91 | 0.843 | 0.811 |
| NCI-H1975 | 0.915 | 0.872 | 0.883 | 0.691 | 0.57 | 0.285 | 0.284 | 0.262 | 0.299 | 0.419 | 0.418 | 0.345 | 0.32 | 0.957 | 0.969 | 0.792 | 0.963 |
| HCC-15 | 0.982 | 1 | 0.961 | 0.792 | 0.735 | 0.227 | 0.226 | 0.209 | 0.222 | 0.561 | 0.64 | 0.59 | 0.77 | 0.941 | 1.09 |  | 1.05 |
| COR-L23 | 1.01 | 0.933 | 1.12 | 0.843 | 0.839 | 0.195 | 0.198 | 0.186 | 0.181 | 0.417 | 0.464 | 0.336 | 0.424 | 0.864 | 0.92 | 0.854 | 0.957 |
| NCI-H23 | 0.859 | 0.935 | 0.977 | 0.743 | 0.621 | 0.564 | 0.772 | 0.622 | 0.727 | 0.287 | 0.272 | 0.353 | 0.322 | 0.981 | 0.685 | 0.953 | 0.719 |
| NCI-H441 | 0.891 | 0.844 | 0.786 | 0.724 | 0.566 | 0.23 | 0.295 | 0.249 | 0.27 | 0.252 | 0.262 | 0.28 | 0.231 | 0.962 | 0.696 | 0.919 | 0.912 |
| NCI-H1650 | 1.09 | 1.1 | 1.35 | 0.867 | 1.15 | 0.343 | 0.316 | 0.343 | 0.351 | 0.348 | 0.499 | 0.413 | 0.461 |  | 0.649 |  | 1.19 |
| NCI-H1734 | 0.749 |  | 0.786 | 0.486 | 0.356 | 0.396 | 0.382 | 0.385 | 0.399 | 0.569 | 0.486 | 0.506 | 0.506 | 0.81 | 0.82 | 0.779 | 0.763 |
| HCC-366 | 0.887 | 0.939 | 0.868 | 0.861 | 0.349 | 0.178 | 0.166 |  | 0.151 | 0.332 | 0.327 |  | 0.333 | 0.988 | 0.922 | 1.01 | 1 |
| LXF-289 | 0.951 | 1 | 1.08 | 0.909 | 0.764 | 0.871 | 0.868 | 0.903 | 0.635 | 0.329 | 0.303 | 0.377 | 0.35 | 0.968 | 0.931 | 1.07 | 1.07 |
| ChaGo-K-1 | 0.881 | 0.91 | 1.01 | 0.807 | 0.8 | 0.247 | 0.267 | 0.261 | 0.274 | 0.548 | 0.47 | 0.493 | 0.512 | 0.885 | 0.938 | 0.85 | 0.901 |
| NCI-H838 | 0.94 | 0.961 | 1.01 | 0.892 | 0.871 | 0.252 | 0.235 | 0.338 | 0.272 | 0.467 | 0.485 | 0.54 | 0.598 | 0.964 | 1.05 |  | 1.07 |
| NCI-H1993 | 0.737 | 0.697 | 0.771 | 0.544 | 0.55 | 0.67 |  | 0.642 | 0.628 | 0.513 |  | 0.651 | 0.713 | 0.793 |  | 0.98 | 0.823 |
| NCI-H1437 | 1.23 | 1.33 | 1.33 | 1.27 | 1.31 | 0.327 | 0.294 | 0.312 | 0.32 | 0.523 | 0.565 | 0.531 | 0.579 | 1.18 | 1.22 | 1.3 | 1.27 |
| NCI-H647 | 1.12 | 1.14 | 1.33 | 0.837 | 1.24 | 0.164 | 0.174 | 0.169 | 0.198 | 0.478 | 0.396 | 0.38 | 0.444 | 1.12 | 1.11 | 1.34 | 1.02 |
| HCC-78 | 0.495 | 0.426 | 0.493 | 0.353 | 0.366 | 0.925 | 0.922 | 0.932 | 0.921 | 0.61 | 0.57 | 0.705 | 0.744 | 0.59 | 0.476 | 0.7 | 0.552 |
